Patent publication US10781204B2, “TYK2 inhibitors and uses thereof” (Nimbus Lakshmi, Inc., priority 2015, dated 2020)

How the values were obtained:
[1] = system: JAK2-pSTAT5 (GM-CSF induced pSTAT5); test: GM-CSF induced pSTAT5 in human PBMC; type: cell-based; conditions: 20 min, 5 ng/mL GM-CSF
Method: (§1) Human PBMC are isolated from buffy coat and are stored frozen for assays as needed. Cells for assay are thawed and resuspended in complete media containing serum, then cells are diluted to 1.67 E6 cells/ml so that 120 ul per well is 200,000 cells. 15 ul of compound or DMSO is added to the well at the desired concentrations and incubated at 1 hr at 37 C. 15 ul of stimulus (final concentration of 1.7 ng/mL IL-12) is added for 30 minutes prior to pSTAT4 and total STAT4 analysis using cell lysates prepared and analyzed by MSD reagents as per manufacturer protocol. The final DMSO concentration of compound in the assay is 0.1%.
Cells are prepared for analysis as in the above procedure and 15 ul of GM-CSF (final concentration 5 ng/mL) is added for 20 minutes prior to pSTAT5 and total STAT5 analysis using cell lysates prepared and analyzed by MSD reagents as per manufacturer protocol. The final DMSO concentration of compound in the assay is 0.1%.

JAK2 = JAK2 (Homo sapiens (Human), UniProt O60674); test: JAK2 radioactive kinase assay; type: biochemical; conditions: ATP 10 μM
Sequence of JAK2 (O60674 whole entry): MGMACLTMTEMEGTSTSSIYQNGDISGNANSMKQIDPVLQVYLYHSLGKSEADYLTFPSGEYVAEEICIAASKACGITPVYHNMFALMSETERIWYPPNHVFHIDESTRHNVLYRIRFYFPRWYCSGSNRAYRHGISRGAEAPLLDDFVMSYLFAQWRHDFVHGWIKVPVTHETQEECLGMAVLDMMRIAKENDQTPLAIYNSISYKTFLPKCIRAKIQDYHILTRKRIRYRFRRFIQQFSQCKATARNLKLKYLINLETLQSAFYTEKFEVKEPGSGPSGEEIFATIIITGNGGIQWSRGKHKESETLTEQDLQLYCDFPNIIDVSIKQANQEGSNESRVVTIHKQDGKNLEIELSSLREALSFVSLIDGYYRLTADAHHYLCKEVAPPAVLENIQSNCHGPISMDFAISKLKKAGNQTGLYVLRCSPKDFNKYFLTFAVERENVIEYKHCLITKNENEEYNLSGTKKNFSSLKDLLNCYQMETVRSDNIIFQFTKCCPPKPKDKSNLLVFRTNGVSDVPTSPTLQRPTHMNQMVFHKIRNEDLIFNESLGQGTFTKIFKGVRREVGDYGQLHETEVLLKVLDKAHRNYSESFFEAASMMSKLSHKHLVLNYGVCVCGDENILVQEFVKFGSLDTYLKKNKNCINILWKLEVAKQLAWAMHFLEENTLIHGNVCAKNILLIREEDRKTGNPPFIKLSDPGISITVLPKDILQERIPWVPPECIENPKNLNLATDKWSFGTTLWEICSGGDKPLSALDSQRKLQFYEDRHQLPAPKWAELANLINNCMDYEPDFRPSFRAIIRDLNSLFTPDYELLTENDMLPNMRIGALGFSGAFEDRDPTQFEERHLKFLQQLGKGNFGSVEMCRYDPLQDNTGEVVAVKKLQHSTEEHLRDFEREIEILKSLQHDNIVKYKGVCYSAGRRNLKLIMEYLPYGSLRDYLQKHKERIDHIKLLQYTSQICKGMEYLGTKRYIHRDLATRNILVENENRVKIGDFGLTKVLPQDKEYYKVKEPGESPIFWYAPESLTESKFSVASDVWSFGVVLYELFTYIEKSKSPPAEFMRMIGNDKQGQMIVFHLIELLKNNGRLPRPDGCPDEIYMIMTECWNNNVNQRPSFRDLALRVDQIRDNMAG
Method: (§2) Peptide substrate, [KKSRGDYMTMQIG], (20 μM) is prepared in reaction buffer (20 mM Hepes pH 7.5, 10 mM MgCl2, 1 mM EGTA, 0.02% Brij35, 0.02 mg/mL BSA, 0.1 mM […], 2 mM DTT, 1% DMSO. TYK2 (Invitrogen) kinase is added, followed by compounds in DMSO. ^33PATP is added to initiate the reaction with ATP at 10 μM. Kinase reaction is incubated for 120 min at room temp and reactions are spotted onto P81 ion exchange paper (Whatman #3698-915), and then washed extensively in 0.75% phosphoric acid, prior to reading the radioactivity counts. For JAK2 (Invitrogen) kinase assay the peptide substrate poly[Glu:Tyr] (4:1), 0.2 mg/ml is used, in the reaction carried out the same as for TYK2.

TYK2 = TYK2 (Homo sapiens (Human), UniProt P29597); test: Tyk2 radioactive kinase assay; type: biochemical; conditions: ATP 10 μM
Sequence of TYK2 (P29597 whole entry): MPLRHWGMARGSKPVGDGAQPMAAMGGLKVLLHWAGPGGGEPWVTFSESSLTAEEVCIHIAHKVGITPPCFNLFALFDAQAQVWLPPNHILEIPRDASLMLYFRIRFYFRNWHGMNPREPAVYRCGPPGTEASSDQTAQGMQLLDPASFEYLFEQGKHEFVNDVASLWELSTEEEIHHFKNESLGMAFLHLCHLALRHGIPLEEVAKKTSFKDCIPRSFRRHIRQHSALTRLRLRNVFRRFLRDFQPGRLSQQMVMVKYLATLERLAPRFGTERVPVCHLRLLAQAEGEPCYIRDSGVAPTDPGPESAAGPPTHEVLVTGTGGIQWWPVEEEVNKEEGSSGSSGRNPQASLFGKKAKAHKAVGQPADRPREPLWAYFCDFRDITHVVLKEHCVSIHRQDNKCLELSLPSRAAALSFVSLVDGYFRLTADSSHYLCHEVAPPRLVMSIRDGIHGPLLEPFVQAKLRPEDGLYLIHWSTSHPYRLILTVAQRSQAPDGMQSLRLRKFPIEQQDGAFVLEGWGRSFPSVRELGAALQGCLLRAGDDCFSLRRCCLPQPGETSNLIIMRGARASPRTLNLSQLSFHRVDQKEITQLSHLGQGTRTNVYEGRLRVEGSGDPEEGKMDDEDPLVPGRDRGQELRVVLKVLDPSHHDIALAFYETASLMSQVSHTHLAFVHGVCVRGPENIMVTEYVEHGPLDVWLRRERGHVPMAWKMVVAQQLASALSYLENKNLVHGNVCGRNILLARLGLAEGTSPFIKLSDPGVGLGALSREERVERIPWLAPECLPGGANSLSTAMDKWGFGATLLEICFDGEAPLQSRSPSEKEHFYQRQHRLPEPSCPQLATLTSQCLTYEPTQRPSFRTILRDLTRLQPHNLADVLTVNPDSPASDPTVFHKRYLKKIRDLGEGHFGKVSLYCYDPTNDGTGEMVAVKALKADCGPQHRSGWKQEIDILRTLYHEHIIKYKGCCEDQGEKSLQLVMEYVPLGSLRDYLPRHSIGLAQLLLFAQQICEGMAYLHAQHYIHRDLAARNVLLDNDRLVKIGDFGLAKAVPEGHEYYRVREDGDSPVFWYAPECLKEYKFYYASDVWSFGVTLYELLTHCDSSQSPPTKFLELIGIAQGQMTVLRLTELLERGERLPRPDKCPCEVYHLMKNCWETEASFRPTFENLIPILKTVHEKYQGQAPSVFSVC
Method: as §2

[2] = system: Tyk2-pSTAT4 (IL-12 induced pSTAT4); test: IL-12 induced pSTAT4 in human PBMC; type: cell-based; conditions: Homo sapiens, PBMC, 0.5 h, 1.7 ng/mL IL-12, 30 minutes
Method: as §1

| Ki (JAK2) [nM] | Ki (TYK2) [nM] | EC50 ([1]; Homo sapiens, PBMC) [nM] | EC50 [2] [nM] | Compound | EC50 [1] [nM] |
| --- | --- | --- | --- | --- | --- |
| 10 to 100 | 0.1 to 10 |  | 100 to 2000 | N#Cc1cccc(F)c1-c1cc(-n2ccc(N3CCOC[C@H](O)C3)n2)c2c(n1)CNC2=O [I-132, (R)-3-fluoro-2-(4-(3-(6-hydroxy-1,4-oxazepan-4-yl)-1H-pyrazol-1-yl)-5-oxo-6,7-dihydro-5H-pyrrolo[3,4-b]pyridin-2-yl)benzonitrile] |  |
| 0.1 to 10 | 0.1 to 10 |  | 100 to 2000 | CS(=O)(=O)N[C@@H]1CCN(c2ccn(-c3cc(-c4c(F)cccc4C#N)nc4c3C(=O)NC4)n2)C1 [I-134, (R)-N-(1-(1-(2-(2-cyano-6-fluorophenyl)-5-oxo-6,7-dihydro-5H-pyrrolo[3,4-b]pyridin-4-yl)-1H-pyrazol-3-yl)pyrrolidin-3-yl)methanesulfonamide] |  |
| 0.1 to 10 | 0.1 to 10 |  | 100 to 2000 | N#Cc1cccc(F)c1-c1cc(-n2ccc(N3CCCNC(=O)C3)n2)c2c(n1)CNC2=O [I-140, 3-fluoro-2-(5-oxo-4-(3-(3-oxo-1,4-diazepan-1-yl)-1H-pyrazol-1-yl)-6,7-dihydro-5H-pyrrolo[3,4-b]pyridin-2-yl)benzonitrile] |  |
| 0.1 to 10 | 0.009 to 0.1 |  | 30 to 100 | N#Cc1cccc(F)c1-c1cc(-n2ccc(N3CCC(F)C(O)C3)n2)c2c(n1)CNC2=O (stereo not drawn) [I-160, 3-fluoro-2-(4-(3-(4-fluoro-3-hydroxypiperidin-1-yl)-1H-pyrazol-1-yl)-5-oxo-6,7-dihydro-5H-pyrrolo[3,4-b]pyridin-2-yl)benzonitrile] |  |
| 0.1 to 10 | 0.1 to 10 |  | 100 to 2000 | N#Cc1cccc(F)c1-c1cc(-n2ccc(N3CCC[C@@H](C(=O)N4CCCC4)C3)n2)c2c(n1)CNC2=O [I-167, (R)-3-fluoro-2-(5-oxo-4-(3-(3-(pyrrolidine-1-carbonyl)piperidin-1-yl)-1H-pyrazol-1-yl)-6,7-dihydro-5H-pyrrolo[3,4-b]pyridin-2-yl)benzonitrile] |  |
| 0.1 to 10 | 0.1 to 10 |  | 30 to 100 | N#Cc1cccc(F)c1-c1cc(-n2ccc(N3C[C@@H]4OCCO[C@@H]4C3)n2)c2c(n1)CNC2=O [I-169, 3-fluoro-2-(4-(3-((4aR,7aS)-hexahydro-6H-[1,4]dioxino[2,3-c]pyrrol-6-yl)-1H-pyrazol-1-yl)-5-oxo-6,7-dihydro-5H-pyrrolo[3,4-b]pyridin-2-yl)benzonitrile] |  |
| 100 to 1000 | 0.1 to 10 |  | 100 to 2000 | N#Cc1cccc(F)c1-c1cc(-n2ccc(N3CCNC(=O)C3)n2)c2c(n1)CNC2=O [I-175, 3-fluoro-2-(5-oxo-4-(3-(3-oxopiperazin-1-yl)-1H-pyrazol-1-yl)-6,7-dihydro-5H-pyrrolo[3,4-b]pyridin-2-yl)benzonitrile] |  |
| 0.1 to 10 | 0.1 to 10 |  | 30 to 100 | C[C@@]1(O)CN(c2ccn(-c3cc(-c4c(F)cccc4C#N)nc4c3C(=O)NC4)n2)CC[C@H]1O [I-182, 2-(4-(3-((3R,4R)-3,4-dihydroxy-3-methylpiperidin-1-yl)-1H-pyrazol-1-yl)-5-oxo-6,7-dihydro-5H-pyrrolo[3,4-b]pyridin-2-yl)-3-fluorobenzonitrile] |  |
| 0.1 to 10 | 0.009 to 0.1 |  | 100 to 2000 | CC1(C)C(O)CCN1c1ccn(-c2cc(-c3c(F)cccc3C#N)nc3c2C(=O)NC3)n1 (stereo not drawn) [I-187, 3-fluoro-2-(4-(3-(3-hydroxy-2,2-dimethylpyrrolidin-1-yl)-1H-pyrazol-1-yl)-5-oxo-6,7-dihydro-5H-pyrrolo[3,4-b]pyridin-2-yl)benzonitrile] |  |
| 0.1 to 10 | 0.1 to 10 |  | 100 to 2000 | [2H]C1([2H])N(c2ccn(-c3cc(-c4c(F)cccc4C#N)nc4c3C(=O)NC4)n2)C([2H])([2H])C([2H])(O)C1([2H])[2H] (stereo not drawn) [I-194, 3-fluoro-2-(4-(3-(3-hydroxypyrrolidin-1-yl-2,2,3,4,4,5,5-d7)-1H-pyrazol-1-yl)-5-oxo-6,7-dihydro-5H-pyrrolo[3,4-b]pyridin-2-yl)benzonitrile] |  |
| 10 to 100 | 0.1 to 10 |  | 100 to 2000 | N#Cc1cccc(F)c1-c1cc(-n2ccc(N3CC[C@@](O)(C(=O)N4CCCC4)C3)n2)c2c(n1)CNC2=O [I-197, (S)-3-fluoro-2-(4-(3-(3-hydroxy-3-(pyrrolidine-1-carbonyl)-pyrrolidin-1-yl)-1H-pyrazol-1-yl)-5-oxo-6,7-dihydro-5H-pyrrolo[3,4-b]pyridin-2-yl)benzonitrile] |  |
| 10 to 100 | 0.1 to 10 |  | 100 to 2000 | N#Cc1cccc(F)c1-c1cc(-n2ccc(N3CC[C@]4(C3)OC[C@@H](O)CO4)n2)c2c(n1)CNC2=O [I-222, 3-fluoro-2-(4-(3-((5s,8s)-8-hydroxy-6,10-dioxa-2-azaspiro[4.5]decan-2-yl)-1H-pyrazol-1-yl)-5-oxo-6,7-dihydro-5H-pyrrolo[3,4-b]pyridin-2-yl)benzonitrile] |  |
| 10 to 100 | 0.009 to 0.1 |  | 100 to 2000 | CO[C@H]1CCN(c2ccn(-c3cc(-c4c(F)cccc4C#N)nc4c3C(=O)NC4)n2)C[C@@]1(C)O [I-229, 3-fluoro-2-(4-(3-((3R,4S)-3-hydroxy-4-methoxy-3-methylpiperi-din-1-yl)-1H-pyrazol-1-yl)-5-oxo-6,7-dihydro-5H-pyrrolo[3,4-b]pyridin-2-yl)benzonitrile] |  |

The remaining lines, values behind:

| Compound | Ki (JAK2) [nM] | Ki (TYK2) [nM] | EC50 ([1]; Homo sapiens, PBMC) [nM] | EC50 [2] [nM] | EC50 [1] [nM] |
| --- | --- | --- | --- | --- | --- |
| CCNC(=O)Cc1ccn(-c2cc(-c3c(F)cccc3F)nc3c2C(=O)NC3)n1 [I-2, 2-(1-(2-(2,6-difluorophenyl)-5-oxo-6,7-dihydro-5H-pyrrolo[3,4-b]pyridin-4-yl)-1H-pyrazol-3-yl)-N-ethylacetamide] | ≥ 1000 | 10 to 100 |  |  | > 2000 |
| CCNC(=O)c1ccn(-c2cc(-c3c(F)cccc3F)nc3c2C(=O)NC3)n1 [I-3, 1-(2-(2,6-difluorophenyl)-5-oxo-6,7-dihydro-5H-pyrrolo[3,4-b]pyridin-4-yl)-N-ethyl-1H-pyrazole-3-carboxamide] | 100 to 1000 | 0.1 to 10 | > 2000 |  |  |
| N#Cc1cccc(F)c1-c1cc(-n2ccc(N3CCC[C@@H](N)C3)n2)c2c(n1)CNC2=O [I-73, (R)-2-(4-(3-(3-aminopiperidin-1-yl)-1H-pyrazol-1-yl)-5-oxo-6,7-dihydro-5H-pyrrolo[3,4-b]pyridin-2-yl)-3-fluorobenzonitrile] | 0.1 to 10 | 0.1 to 10 |  | 100 to 2000 |  |
| N#Cc1cccc(F)c1-c1cc(-n2cc3c(n2)CCCN3)c2c(n1)CNC2=O [I-77, 3-fluoro-2-(5-oxo-4-(4,5,6,7-tetrahydro-2H-pyrazolo[4,3-b]pyri-din-2-yl)-6,7-dihydro-5H-pyrrolo[3,4-b]pyridin-2-yl)benzonitrile] | 10 to 100 | 0.1 to 10 |  | 30 to 100 |  |
| N#Cc1cccc(F)c1-c1cc(-n2ccc(N3CCCC(CO)C3)n2)c2c(n1)CNC2=O (stereo not drawn) [I-86, 3-fluoro-2-(4-(3-(3-(hydroxymethyl)piperidin-1-yl)-1H-pyrazol-1-yl)-5-oxo-6,7-dihydro-5H-pyrrolo[3,4-b]pyridin-2-yl)benzonitrile] | 10 to 100 | 0.1 to 10 |  | 100 to 2000 |  |
| C[C@]1(O)CCN(c2ccn(-c3cc(-c4c(F)cccc4C#N)nc4c3C(=O)NC4)n2)C1 [I-93, (S)-3-fluoro-2-(4-(3-(3-hydroxy-3-methylpyrrolidin-1-yl)-1H-pyrazol-1-yl)-5-oxo-6,7-dihydro-5H-pyrrolo[3,4-b]pyridin-2-yl)benzonitrile] | 10 to 100 | 0.1 to 10 |  | 30 to 100 |  |
| N#Cc1cccc(F)c1-c1cc(-n2ccc(N3CC[C@@H](O)[C@@H](O)C3)n2)c2c(n1)CNC2=O [I-105, 2-(4-(3-((3S,4R)-3,4-dihydroxypiperidin-1-yl)-1H-pyrazol-1-yl)-5-oxo-6,7-dihydro-5H-pyrrolo[3,4-b]pyridin-2-yl)-3-fluorobenzonitrile] | 10 to 100 | 0.1 to 10 |  | 100 to 2000 |  |
| N#Cc1cccc(F)c1-c1cc(-n2ccc(N3CC[C@@H](C#N)C3)n2)c2c(n1)CNC2=O [I-127, (R)-1-(1-(2-(2-cyano-6-fluorophenyl)-5-oxo-6,7-dihydro-5H-pyrrolo[3,4-b]pyridin-4-yl)-1H-pyrazol-3-yl)pyrrolidine-3-carbonitrile] | 10 to 100 | 0.1 to 10 |  | 30 to 100 |  |
| N#Cc1cccc(F)c1-c1cc(-n2ccc(N3CC[C@H](C#N)C3)n2)c2c(n1)CNC2=O [I-128, (S)-1-(1-(2-(2-cyano-6-fluorophenyl)-5-oxo-6,7-dihydro-5H-pyrrolo[3,4-b]pyridin-4-yl)-1H-pyrazol-3-yl)pyrrolidine-3-carbonitrile] | 10 to 100 | 0.1 to 10 |  | 30 to 100 |  |
